In US20260034125A1, “N-PHENYL-1-(PHENYLSULFONYL)PIPERIDIN-4-AMINE DERIVATIVES AS CCR6 INHIBITORS” (priority 2023, published 2026):

How the values were obtained:
[1] = target: T1, human CCR6 (Homo sapiens, UniProt P51684); assay: Human CCR6-Cre reporter assay; assay type: cell-based; set-up: The second construct contained the open reading frame of human CCR6 in the pUNO1 backbone; host or cells: 293 FT cells; conditions: relative -LogIC50; transfected 293 FT cells, 6 μM Forskolin, 6 nM CCL20, luciferase readout, 5h
T1 sequence (P51684 1-374): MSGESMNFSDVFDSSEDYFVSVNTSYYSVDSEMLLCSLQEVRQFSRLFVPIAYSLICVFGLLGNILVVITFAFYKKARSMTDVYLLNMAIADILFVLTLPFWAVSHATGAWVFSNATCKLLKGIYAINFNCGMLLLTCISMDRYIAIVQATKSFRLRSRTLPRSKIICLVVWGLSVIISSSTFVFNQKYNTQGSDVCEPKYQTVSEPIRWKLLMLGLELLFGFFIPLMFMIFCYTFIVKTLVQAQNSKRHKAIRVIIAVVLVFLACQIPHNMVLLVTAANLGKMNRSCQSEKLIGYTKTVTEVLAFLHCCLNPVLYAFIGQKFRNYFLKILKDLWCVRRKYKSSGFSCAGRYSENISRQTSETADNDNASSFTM
Method: 293 FT cells were transfected with 2 constructs using TransIT-293 (Mirus). The first construct (pGL4.29, Promega) expressed the luciferase reporter gene luc2P in response to the binding of cAMP-induced CREB to the CRE element in its promoter. The second construct contained the open reading frame of human CCR6 in the pUNO1 backbone under the control of an enhanced CMV promoter (In VivoGen). 48h after transfection, cells were harvested and diluted to 750,000 cells/ml in culture medium (DMEM, 10% FBS, 1× pen/strep (Gibco 15140)). Compounds were 2.5-fold serially diluted in DMSO. Further dilutions were made in assay medium (DMEM, 10% FBS, 1× pen/strep, 6 μM Forskolin, 6 nM CCL20). 4 μl of the compound solution was added to a white MW384 plate, followed by 20 μl of the cell suspension. Final DMSO concentration in the assay was 0.1%. The MW384 plate was placed in an incubator at 37° C., 5% CO2 for 5h. Luciferase activity was determined by addition of 24 μl of a 2.5× diluted BriteLite luciferase solution (Perkin Elmer), followed by luminescence measurement using a VICTOR Plate reader (Perkin Elmer). […] The relative-LogIC50 was determined with GraphPad Prism 9 using a four-parameter dose-response model.

[2] = tested on: Human CD4+ T cells; assay: CD4+ T cell chemotaxis assay towards CCL20; assay type: cell-based; conditions: relative -LogIC50, 150 ng/ml CCL20, Transwell, 3 h
From the text: Human CD4+ T cells were isolated from buffy coats of healthy donors using a CD4+ T Cell Isolation Kit (Miltenyi Biotec130-096-533). Isolated T cells were stimulated overnight with anti-CD3 and anti-CD28 antibodies (Biolegend 300314/302934) in growth medium (RPMI1640, 10% heat-inactivated FBS, 1× pen/strep (Gibco 15140)). For the chemotaxis assay, Corning Transwell plates were used with a pore size of 5 μm (Corning 3388). T cells were counted and diluted to 6*10^6 cells/ml in chemotaxis medium (RPMI1640, 1% BSA, pen/strep). Compounds were four-fold serially diluted in DMSO. Further dilutions were made in chemotaxis medium. Cells were incubated with test compounds for 30 min at 37° C. prior to initiation of the assay (3*10^6 cells/ml). Final DMSO concentration in the assay was 0.2%. Wells of the Transwell plates were filled with 200 μl chemotaxis medium containing 150 ng/ml CCL20 (R&D systems 360-MP). 50 μl of the cell/compound suspension was added to the inserts of the Transwell plates (150,000 cells/insert). The Transwell plates were placed in an incubator at 37° C., 5% CO2 for 3 h. After 3 h, the number of migrated cells was quantified using CellTiter Glo (Promega). Percentage inhibition values were calculated based on the low and high signal obtained with 0.2% DMSO in chemotaxis medium without and with CCL20, respectively. The relative −LogIC50 was determined with GraphPad Prism 9 using a four-parameter dose-response model.

Structure (SMILES) | IC50 [1] | IC50 [2]
N#Cc1ccc(-c2ccc(S(=O)(=O)N3CCC(Nc4ccc(C5(C#N)CC5)cc4)CC3)cc2)cc1 [Example 1, 4′-[(4-{[4-(1-cyanocyclopropyl)phenyl]Amino}piperidin-1-yl)sulfonyl]-[1,1′-biphenyl]-4-carbonitrile] | 0.501 µM | 
Cc1n[nH]c2ccc(-c3ccc(S(=O)(=O)N4CCC(Nc5ccc(C6(C(F)(F)F)CC6)cc5)CC4)cc3)cc12 [Example 2, 1-[4-(3-methyl-1H-indazol-5-yl)benzenesulfonyl]-N-{4-[1-(trifluoromethyl)cyclopropyl]phenyl}piperidin-4-amine] | 0.0794 µM | 
N#Cc1c[nH]c2ccc(-c3ccc(S(=O)(=O)N4CCC(Nc5ccc(C6(C(F)(F)F)CC6)cc5)CC4)cc3)cc12 [Example 8, 5-(4-{[4-({4-[1-(trifluoromethyl)cyclopropyl]phenyl}Amino)piperidin-1-yl]sulfonyl}phenyl)-1H-indole-3-carbonitrile] | 0.0398 µM | 
O=S(=O)(c1ccc(-c2ccc3nccn3c2)cc1)N1CCC(Nc2ccc(C3(C(F)(F)F)CC3)cc2)CC1 [Example 9, 1-(4-{imidazo[1,2-a]pyridin-6-yl}benzenesulfonyl)-N-{4-[1-(trifluoromethyl)cyclopropyl]phenyl}piperidin-4-amine] | 0.1 µM | 
CC(C)c1cnc2ccc(-c3ccc(S(=O)(=O)N4CCC(Nc5ccc(C6(C(F)(F)F)CC6)cc5)CC4)cc3)cn12 [Example 10, 1-{4-[3-(propan-2-yl)imidazo[1,2-a]pyridin-6-yl]benzenesulfonyl}-N-{4-[1-(trifluoromethyl)cyclopropyl]phenyl}piperidin-4-amine] | 0.1 µM | 
Cc1n[nH]c2ccc(-c3ccc(S(=O)(=O)N4CCC(Nc5ccc(C6CC6)cc5)CC4)cc3)cc12 [Example 11, N-(4-cyclopropylphenyl)-1-[4-(3-methyl-1H-indazol-5-yl)benzenesulfonyl]piperidin-4-amine] | 0.501 µM | 
N=S(=O)(c1ccc(-c2ccc3nccn3c2)cc1)[C@H]1CC[C@H](Nc2ccc(C3(C(F)(F)F)CC3)cc2)CC1 (stereo partly drawn) [Example 13, (4-{imidazo[1,2-a]pyridin-6-yl}phenyl) [trans-4-({4-[1-(trifluoromethyl)cyclopropyl]phenyl}Amino)cyclohexyl](imino)-26-sulfanone] | 0.251 µM | 
O=S(=O)(c1ccc(-c2ccc3nccn3c2)cc1)[C@H]1CC[C@H](Nc2ccc(C3CC3(F)F)cc2)CC1 (stereo partly drawn) [Example 14, 4-(2,2-difluorocyclopropyl)-N-[trans-4-(4-{imidazo[1,2-a]pyridin-6-yl}benzenesulfonyl)cyclohexyl]aniline] | 0.251 µM | 
N#CC1(c2ccc(N[C@H]3CC[C@H](S(=O)(=O)c4ccc(-c5ccc6nccn6c5)cc4)CC3)cc2)CC1 [Example 15, 1-(4-{[trans-4-(4-{imidazo[1,2-a]pyridin-6-yl}benzenesulfonyl)cyclohexyl]Amino}phenyl)cyclopropane-1-carbonitrile] | 0.158 µM | 
O=S(=O)(c1ccc(-c2ccc3nccn3c2)cc1)[C@H]1CC[C@H](Nc2ccc(C3COC3)cc2)CC1 [Example 18, 4-(oxetan-3-yl)-N-[trans-4-(4-{imidazo[1,2-a]pyridin-6-yl}benzenesulfonyl)cyclohexyl]aniline] | 0.398 µM | 
COC1CC2(CCN(c3ccc(S(=O)(=O)N4CCC(Nc5ccc(C6(C#N)CC6)cn5)CC4)cc3)CC2)C1 [Example 23, 1-(6-{[1-(4-{2-methoxy-7-azaspiro[3.5]nonan-7-yl}benzenesulfonyl)piperidin-4-yl]amino}pyridin-3-yl)cyclopropane-1-carbonitrile] | 1.26 µM | 
N#CC1(c2ccc(NC3CCN(S(=O)(=O)c4ccc(N5CCC(CC(N)=O)CC5)cc4)CC3)nc2)CC1 [Example 24, 2-(1-{4-[(4-{[5-(1-cyanocyclopropyl)pyridin-2-yl]amino}piperidin-1-yl)sulfonyl]phenyl}piperidin-4-yl) acetamide] | 5.01 µM | 
N#CC1(c2ccc(NC3CCN(S(=O)(=O)c4ccc(N5CCC(CNC(N)=O)CC5)cc4)CC3)nc2)CC1 [Example 25, [(1-{4-[(4-{[5-(1-cyanocyclopropyl)pyridin-2-yl]amino}piperidin-1-yl)sulfonyl]phenyl}piperidin-4-yl)methyl]urea] | 12.6 µM | 
N#CC1(c2ccc(NC3CCN(S(=O)(=O)c4ccc(N5CCC6(CC5)CC(=O)NC(=O)C6)cc4)CC3)nc2)CC1 [Example 26, 1-(6-{[1-(4-{8,10-dioxo-3,9-diazaspiro[5.5]undecan-3-yl}benzenesulfonyl)piperidin-4-yl]amino}pyridin-3-yl)cyclopropane-1-carbonitrile] | 2.51 µM | 
N#CC1(c2ccc(NC3CCN(S(=O)(=O)c4ccc(N5CCC6(CC5)COC(=O)N6)cc4)CC3)nc2)CC1 [Example 27, 1-(6-{[1-(4-{2-oxo-3-oxa-1,8-diazaspiro[4.5]decan-8-yl}benzenesulfonyl)piperidin-4-yl]amino}pyridin-3-yl)cyclopropane-1-carbonitrile] | 7.94 µM | 
N#CC1(c2ccc(NC3CCN(S(=O)(=O)c4ccc(N5CCC6(CCNC6=O)CC5)cc4)CC3)nc2)CC1 [Example 28, 1-(6-{[1-(4-{1-oxo-2,8-diazaspiro[4.5]decan-8-yl}benzenesulfonyl)piperidin-4-yl]amino}pyridin-3-yl)cyclopropane-1-carbonitrile] | 39.8 µM | 
N#CC1(c2ccc(NC3CCN(S(=O)(=O)c4ccc(N5CCC6(CC5)COC6)cc4)CC3)nc2)CC1 [Example 29, 1-(6-{[1-(4-{2-oxa-7-azaspiro[3.5]nonan-7-yl}benzenesulfonyl)piperidin-4-yl]amino}pyridin-3-yl)cyclopropane-1-carbonitrile] | 10 µM | 
N#CC1(c2ccc(NC3CCN(S(=O)(=O)c4ccc(-c5ccc6nccn6c5)cc4)CC3)nc2)CC1 [Example 33, 1-(6-{[1-(4-{imidazo[1,2-a]pyridin-6-yl}benzenesulfonyl)piperidin-4-yl]amino}pyridin-3-yl)cyclopropane-1-carbonitrile] | 0.794 µM | 
CC(C)c1cnc2ccc(-c3ccc(S(=O)(=O)N4CCC(Nc5ccc(C6(C#N)CC6)cn5)CC4)cc3)cn12 [Example 34, 1-{6-[(1-{4-[3-(propan-2-yl)imidazo[1,2-a]pyridin-6-yl]benzenesulfonyl}piperidin-4-yl)amino]pyridin-3-yl}cyclopropane-1-carbonitrile] | 0.2 µM | 
CC(C)c1cnc2ccc(-c3ccc(S(=O)(=O)N4CCC(Nc5ccc(C6(C(F)(F)F)CC6)cn5)CC4)cc3)cn12 [Example 38, N-(1-{4-[3-(propan-2-yl)imidazo[1,2-a]pyridin-6-yl]benzenesulfonyl}piperidin-4-yl)-5-[1-(trifluoromethyl)cyclopropyl]pyridin-2-amine] | 0.0631 µM | 
CC(C)c1nnc2cnc(-c3ccc(S(=O)(=O)N4CCC(Nc5ccc(C6(C(F)(F)F)CC6)cn5)CC4)cc3)cn12 [Example 39, N-(1-{4-[3-(propan-2-yl)-[1,2,4]triazolo[4,3-a]pyrazin-6-yl]benzenesulfonyl}piperidin-4-yl)-5-[1-(trifluoromethyl)cyclopropyl]pyridin-2-amine] | 0.0631 µM | 
Cc1nnc2ccc(-c3ccc(S(=O)(=O)N4CCC(Nc5ccc(C6(C(F)(F)F)CC6)cn5)CC4)cc3)cn12 [Example 47, N-[1-(4-{3-methyl-[1,2,4]triazolo[4,3-a]pyridin-6-yl}benzenesulfonyl)piperidin-4-yl]-5-[1-(trifluoromethyl)cyclopropyl]pyridin-2-amine] |  | 0.0158 µM
